Test results published in BindingDB's records for doi:10.1021/jm00144a025 (1982).

Assays:
[1] = target: norepinephrine transporter (Mus musculus); experiment: In vitro inhibition of accumulation of (-)-[3H]Norepinephrine (NA) in mouse brain slices
[2] = target: serotonin transporter (Mus musculus); experiment: In vitro inhibition of accumulation of [14C]5-HT (5-HT) in mouse brain slices

An IC50 [1] of 2300 nM and an IC50 [2] of 500 nM were found for `CNC/C=C(\c1cccnc1)c1ccc(Cl)cc1Cl` [cis-[3-(2,4-Dichloro-phenyl)-3-pyridin-3-yl-allyl]-methyl-amine;C2H4O4] in this work.
An IC50 [1] of 2200 nM and an IC50 [2] of 4200 nM were found for `CN(C)C/C=C(\c1cccnc1)c1ccccc1Br` [cis-[3-(2-Bromo-phenyl)-3-pyridin-3-yl-allyl]-dimethyl-amine;C2H4O4] in this work.
An IC50 [1] of 13000 nM and an IC50 [2] of 2000 nM were found for `CN(C)C/C=C(/c1ccc(C(F)(F)F)cc1)c1cccnc1` [cis -Dimethyl-[3-pyridin-3-yl-3-(4-trifluoromethyl-phenyl)-allyl]-amine;C2H4O4] in this work.
An IC50 [1] of 900 nM and an IC50 [2] of 1400 nM were found for `CNC/C=C(\c1cccnc1)c1cccc(Br)c1` [cis-[3-(3-Bromo-phenyl)-3-pyridin-3-yl-allyl]-methyl-amine;C2H4O4] in this work.
`CCCNC/C=C(/c1ccc(Br)cc1)c1cccnc1` [cis-[3-(4-Bromo-phenyl)-3-pyridin-3-yl-allyl]-propyl-amine;C2H4O4] was tested, and the IC50 [1] was > 24000 nM and the IC50 [2] was 24000 nM.
An IC50 [1] of 300 nM and an IC50 [2] of 600 nM were found for `CNC/C=C(\c1cccnc1)c1ccccc1Br` [cis-[3-(2-Bromo-phenyl)-3-pyridin-3-yl-allyl]-methyl-amine;C2H4O4] in this work.
An IC50 [1] of 2200 nM and an IC50 [2] of 1600 nM were found for `CN(C)C/C=C(\c1cccnc1)c1cccc(F)c1` [cis-[3-(3-Fluoro-phenyl)-3-pyridin-3-yl-allyl]-dimethyl-amine;C2H4O4] in this work.
An IC50 [1] of 34000 nM and an IC50 [2] of 3500 nM were found for `CC(C)Oc1ccc(/C(=C/CN(C)C)c2ccncc2)cc1` [cis-[3-(4-Isopropoxy-phenyl)-3-pyridin-4-yl-allyl]-dimethyl-amine;C2H4O4] in this work.
For `Cc1ccc(/C(=C/CN(C)C)c2cccnc2)cc1` [cis -Dimethyl-(3-pyridin-3-yl-3-p-tolyl-allyl)-amine;C2H4O4], the IC50 [1] was > 29000 nM and the IC50 [2] was 2400 nM.
An IC50 [1] of 26000 nM and an IC50 [2] of 2000 nM were found for `CCNC/C=C(/c1ccc(Br)cc1)c1cccnc1` [cis-[3-(4-Bromo-phenyl)-3-pyridin-3-yl-allyl]-ethyl-amine;C2H4O4] in this work.
An IC50 [1] of 27000 nM and an IC50 [2] of 3700 nM were found for `CN(C)C/C=C(/c1ccccc1)c1cccnc1` [cis -Dimethyl-(3-phenyl-3-pyridin-3-yl-allyl)-amine;1.5C2H4O4] in this work.
For `CN(C)C/C=C(/c1ccc(I)cc1)c1cccnc1` [cis-[3-(4-Iodo-phenyl)-3-pyridin-3-yl-allyl]-dimethyl-amine;C2H4O4], the IC50 [1] was > 22000 nM and the IC50 [2] was 1000 nM.
For `COc1ccc(/C(=C/CN(C)C)c2cccnc2)cc1` [cis-[3-(4-Methoxy-phenyl)-3-pyridin-3-yl-allyl]-dimethyl-amine;C2H4O4], the IC50 [1] was > 28000 nM and the IC50 [2] was 800 nM.
An IC50 [1] of 10000 nM and an IC50 [2] of 2100 nM were found for `CN(C)C/C=C(/c1ccc(Cl)cc1)c1cccnc1` [cis-[3-(4-Chloro-phenyl)-3-pyridin-3-yl-allyl]-dimethyl-amine;C2H4O4] in this work.
An IC50 [1] of 11000 nM and an IC50 [2] of 2600 nM were found for `CN(C)C/C=C(\c1cccnc1)c1cccc(Cl)c1` [cis-[3-(3-Chloro-phenyl)-3-pyridin-3-yl-allyl]-dimethyl-amine;C2H4O4] in this work.
